This is an account of results in patent US9862730B2, “Imidazothiadiazole derivatives as protease activated receptor 4 (PAR4) inhibitors for treating platelet aggregation” (BRISTOL-MYERS SQUIBB COMPANY, priority 2012, dated 2018).

Chain of PAR4 (Q96RI0 18-385): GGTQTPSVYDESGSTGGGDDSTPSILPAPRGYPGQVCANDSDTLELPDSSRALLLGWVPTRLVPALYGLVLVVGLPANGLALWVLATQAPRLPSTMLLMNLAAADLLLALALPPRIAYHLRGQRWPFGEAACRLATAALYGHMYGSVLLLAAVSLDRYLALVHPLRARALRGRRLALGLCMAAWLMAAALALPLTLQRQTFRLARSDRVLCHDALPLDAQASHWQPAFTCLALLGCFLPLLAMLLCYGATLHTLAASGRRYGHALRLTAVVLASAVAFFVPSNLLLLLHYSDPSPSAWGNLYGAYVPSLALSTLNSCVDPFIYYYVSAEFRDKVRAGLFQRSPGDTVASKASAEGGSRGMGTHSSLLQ

This experiment deals with PAR4 (Homo sapiens (Human), UniProt Q96RI0). Description: FLIPR assay in PAR4-expressing HEK293 cells (PAR4 antagonist activity, calcium mobilization). The experiment is classed as cell-based. The conditions noted are these: FLIPR assay as described in Example A. In outline:
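Calcium-flux antagonist readout: compounds preincubated 30 min at room temperature with PAR4-transfected HEK293 cells in HBSS with 10 mM HEPES (0.67% DMSO final), then agonist peptide added. Agonist activity checked on compound addition; cells carry endogenous PAR1.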
Consider `CSc1nn2cc(-c3nc4c(OC[C@@H]5CCCN5C(=O)[C@H](NC(=O)c5cccs5)c5ccccc5)cccc4o3)nc2s1` [Example 338, N—((R)-2-((S)-2-(((2-(2-(Methylthio)imidazo[2,1-b][1,3,4]thiadiazol-6-yl)benzo[d]oxazol-4-yl)oxy)methyl)pyrrolidin-1-yl)-2-oxo-1-phenylethyl)thiophene-2-carboxamide], for which the IC50 is 1160 nM. The value for `COc1nn2cc(-c3nc4cc(C)c(C)cc4o3)nc2s1` [Example 136] was 38.9 nM; that for `COc1cc2oc(-c3cn4nc(SC)sc4n3)cc2cc1Cl` [Example 202, 6-(5-Chloro-6-methoxybenzofuran-2-yl)-2-(methylthio)imidazo[2,1-b][1,3,4]thiadiazole] was 3.15 nM; that for `CSc1nn2cc(-c3nc4c(O)cccc4o3)nc2s1` [Example 147] was 78.3 nM. As for `COc1cc(Br)c2oc(-c3cn4nc(SC)sc4n3)cc2c1` [Example 283], the figure is 2710 nM. The value for `COc1cc(OCc2cccc(OCc3cccc4ccccc34)c2)c2cc(-c3cn4nc(OC)sc4n3)oc2c1` [Example 310] was 3.45 nM; that for `COCCOc1cccc2oc(-c3cn4nc(SC)sc4n3)cc12` [Example 268] was 21.8 nM; that for `COc1nn2cc(-c3cc4c(C)cc(C)cc4o3)nc2s1` [Example 297] was 5.88 nM. As for `CCOC(=O)CCCCCOc1cccc2cc(-c3cn4nc(CC)sc4n3)oc12` [Example 65], the IC50 was found to be 1470 nM. As for `CSc1nn2cc(-c3nc4c(OCc5ccc(Cl)cc5)cccc4o3)nc2s1` [Example 157], the figure is 1650 nM; as for `CC(F)c1nn2cc(-c3cc4ccccc4o3)nc2s1` (stereo not shown) [Example 247], 47.9 nM.

For the compound `CSc1nn2cc(-c3nc4ccc(OCc5ccccc5)cc4o3)nc2s1` [Example 115, 6-(Benzyloxy)-2-(2-(methylthio)imidazo[2,1-b][1,3,4]thiadiazol-6-yl)benzo[d]oxazole], the IC50 turned out to be 74.9 nM. The value for `COc1nn2cc(-c3cc4ccc(C)cc4o3)nc2s1` [Example 90] was 4.7 nM; that for `COc1cc(OCc2cccc(OCc3cc(F)cc(F)c3)c2)c2cc(-c3cn4nc(OC)sc4n3)oc2c1` [Example 311] was 8.82 nM.

As for `Brc1nn2cc(-c3cc4c(OCc5ccccc5)cc(OCc5ccccc5)cc4o3)nc2s1` [Example 254], the IC50 amounted to 604 nM. Take `Cc1cc2oc(-c3cn4nc(C(C)(F)F)sc4n3)cc2cc1Cl` [Example 274]: the IC50 is 1970 nM. As for `COc1nn2cc(-c3cc4c(OCc5ccc(F)cc5)cccc4o3)nc2s1` [Example 266], the figure is 43.1 nM; as for `COc1ccc(COc2cccc3oc(-c4cn5nc(SC)sc5n4)nc23)cc1` [Example 172], 814 nM. The value for `CC(F)(F)c1nn2cc(-c3cc4c(Cl)cc(Cl)cc4o3)nc2s1` [Example 238] was 42.5 nM.

`CSc1nn2cc(-c3nc4cc(F)c(F)cc4o3)nc2s1` [Example 137]: the IC50 was 23.9 nM. The value for `COc1cc(OC)c2cc(-c3cn4nc(C(C)F)sc4n3)oc2c1` (stereo not shown) [Example 212, 6-(4,6-Dimethoxybenzofuran-2-yl)-2-(1-fluoroethyl)imidazo-[2,1-b][1,3,4]thiadiazole] was 50.9 nM; that for `CSc1nn2cc(-c3cc4cc(Cl)c(C)cc4o3)nc2s1` [Example 269] was 74.5 nM. The value for `CCc1nn2cc(-c3nc4cc(C)c(C)cc4o3)nc2s1` [Example 46] was 565 nM. The value for `Fc1ccc2sc(-c3cn4nc(Br)sc4n3)nc2c1` [Example 193] was 1040 nM. `COc1cc(OCc2cccc(OCc3ccccc3Cl)c2)c2cc(-c3cn4nc(OC)sc4n3)oc2c1` [Example 362]: the IC50 is 1.24 nM. The value for `COc1nn2cc(-c3cc4c(OC)ccc(OC)c4o3)nc2s1` [Example 103] was 10.7 nM. The value for `COc1nn2cc(-c3nc4cccc(F)c4o3)nc2s1` [Example 144] was 91.3 nM; that for `COc1cc(OCc2cccc(OCc3ccc(C)cc3C)c2)c2cc(-c3cn4nc(OC)sc4n3)oc2c1` [Example 312] was 2.13 nM; that for `Fc1cccc2cc(-c3cn4nc(Br)sc4n3)oc12` [Example 259] was 323 nM. The value for `COc1nn2cc(-c3cc4c(OCc5ccccc5)cc(OC)c(Br)c4o3)nc2s1` [Example 226, 6-(4-(Benzyloxy)-7-bromo-6-methoxybenzofuran-2-yl)-2-methoxyimidazo[2,1-b][1,3,4]thiadiazole] was 591 nM; that for `CC(F)(F)c1nn2cc(-c3cc4cc(Cl)ccc4o3)nc2s1` [Example 236] was 159 nM. `COc1cc(OCc2ccccc2)c2nc(-c3cn4nc(SC)sc4n3)oc2c1` [Example 119, 4-(Benzyloxy)-6-methoxy-2-(2-(methylthio)imidazo[2,1-b][1,3,4]thiadiazol-6-yl)benzo[d]oxazole]: the IC50 is 10.6 nM. As for `CSc1nn2cc(-c3cc4c(OCc5cccc(OCc6ccccc6)c5)cc(O)cc4o3)nc2s1` [Example 421], the figure is 24.5 nM; as for `CC(F)(F)c1nn2cc(-c3cc4c(F)cccc4o3)nc2s1` [Example 273], 180 nM; as for `CCc1nn2cc(-c3cc4cc(OC)ccc4o3)nc2s1` [Example 61], 1650 nM.

Turning to `CSc1nn2cc(-c3nc4ccc(Cl)cc4s3)nc2s1` [Example 188], the IC50 amounted to 920 nM.

With `COc1cc(OCc2cccc(OCc3ccc(I)cc3)c2)c2cc(-c3cn4nc(OC)sc4n3)oc2c1` [Example 391], the IC50 came to 3.03 nM. The value for `CSc1nn2cc(-c3nc4c(OC[C@@H]5CCCN5C(=O)OC(C)(C)C)cccc4o3)nc2s1` [Example 332, (S)-tert-Butyl 2-(((2-(2-(methylthio)imidazo[2,1-b][1,3,4]thiadiazol-6-yl)benzo[d]oxazol-4-yl)oxy)methyl)pyrrolidine-1-carboxylate] was 253 nM. With `COc1cc(OC[C@H]2CCCN2C(=O)OC(C)(C)C)c2cc(-c3cn4nc(OC)sc4n3)oc2c1` [Example 340], the IC50 was 2.21 nM. `COc1nn2cc(-c3nc4c(Cl)cccc4s3)nc2s1` [Example 196]: the IC50 turned out to be 791 nM. Consider `CCCCOc1ccc2nc(-c3cn4nc(CC)sc4n3)oc2c1` [Example 79], for which the IC50 was found to be 801 nM. As for `COc1nn2cc(-c3cc4cccc(C(C)C)c4o3)nc2s1` [Example 101], the figure is 10.7 nM. The value for `CSc1nn2cc(-c3nc4c(OC[C@H]5CCCN5C(=O)OC(C)(C)C)cccc4o3)nc2s1` [Example 331, (R)-tert-Butyl 2-(((2-(2-(methylthio)imidazo[2,1-b][1,3,4]thiadiazol-6-yl)benzo[d]oxazol-4-yl)oxy)methyl)pyrrolidine-1-carboxylate] was 84.3 nM.

In the case of `COc1nn2cc(-c3cc4cc(F)ccc4o3)nc2s1` [Example 97], the IC50 was 3.48 nM.

Consider `Cc1ccc2cc(-c3cn4nc(C(F)(F)Cl)sc4n3)oc2c1` [Example 244], for which the IC50 turned out to be 383 nM.

With `CCOc1ccc2nc(-c3cn4nc(SC)sc4n3)oc2c1` [Example 160], the IC50 worked out at 40 nM. The value for `CC(F)c1nn2cc(-c3cc4ccc(OCc5ccccc5)cc4o3)nc2s1` (stereo not shown) [Example 246] was 318 nM; that for `COc1cc(OCc2cccc(OCc3ccccc3)c2)c2cc(-c3cn4nc(SC)sc4n3)oc2c1` [Example 345] was 0.97 nM; that for `COc1cc(OCc2cccc(OCc3ccccc3Br)c2)c2cc(-c3cn4nc(OC)sc4n3)oc2c1` [Example 360] was 2.47 nM. The value for `Cc1ccc2nc(-c3cn4nc(C(C)(F)F)sc4n3)sc2c1` [Example 199] was 2680 nM. The value for `COc1cc(OCc2cccc(OCc3cccc(Cl)c3)c2)c2cc(-c3cn4nc(OC)sc4n3)oc2c1` [Example 349] was 0.32 nM; that for `COc1nn2cc(-c3cc4cccc(OC)c4o3)nc2s1` [Example 9, 2-Methoxy-6-(7-methoxybenzofuran-2-yl)imidazo[2,1-b][1,3,4]thiadiazole] was 224 nM; that for `CCc1nn2cc(-c3nc4ccc(OCc5ccccc5)cc4o3)nc2s1` [Example 67] was 103 nM. Take `CSc1nn2cc(-c3nc4ccc(F)cc4s3)nc2s1` [Example 191]: the IC50 was found to be 30.7 nM. As for `COc1cc(OCc2ccccc2)c2cc(-c3cn4nc(SC)sc4n3)oc2c1` [Example 227-228], the figure is 4.05 nM; as for `COc1nn2cc(-c3nc4cc(C)ccc4o3)nc2s1` [Example 127], 27.9 nM; as for `CSc1nn2cc(-c3cc4c(Br)cccc4o3)nc2s1` [Example 258], 3.32 nM. As for `Cc1ccc2oc(-c3cn4nc(C)sc4n3)nc2c1` [Example 112, 5-Methyl-2-(2-methylimidazo[2,1-b][1,3,4]thiadiazol-6-yl)benzo[d]oxazole], the figure is 382 nM; as for `Cc1cccc2oc(-c3cn4nc(C(C)(F)F)sc4n3)nc12` [Example 122, 2-(2-(1,1-Difluoroethyl)imidazo[2,1-b][1,3,4]thiadiazol-6-yl)-4-methylbenzo[d]oxazole], 509 nM; as for `COc1nn2cc(-c3cc4cc(Cl)ccc4o3)nc2s1` [Example 91], 19.1 nM. As to `COCCOc1cccc2oc(-c3cn4nc(OC)sc4n3)cc12` [Example 256], the IC50 was found to be 48.4 nM. The value for `COc1cc(OCc2cccc(OCc3ccccc3-c3ccccc3)c2)c2cc(-c3cn4nc(OC)sc4n3)oc2c1` [Example 317] was 8.36 nM; that for `CCc1nn2cc(-c3cc4cccc(OCCCC#N)c4o3)nc2s1` [Example 66] was 2620 nM; that for `COc1cc(Br)cc2cc(-c3cn4nc(SC)sc4n3)oc12` [Example 284] was 139 nM. The value for `COc1cc(OCc2cccc(OCc3ccc(Cl)cc3F)c2)c2cc(-c3cn4nc(OC)sc4n3)oc2c1` [Example 323] was 1.48 nM; that for `CSc1nn2cc(-c3nc4ccc(OCC5CC5)cc4o3)nc2s1` [Example 174] was 167 nM; that for `CCc1nn2cc(-c3cc4ccccc4o3)nc2s1` [Example 47] was 68 nM.
